# Measurements published in US8598128B2, “Fructosylated puerarin, and preparation method and use thereof” (priority 2010, dated 2013).
# Entries after “also recorded” stand apart in the source; their conditions may differ.
# Key:
# [1] = test system: human breast cancer cell strain MDA-MB-231; test: MDA-MB-231 cell toxicity test (MTT); format: cell-based; settings: 48 h; for OD value: MTT 490 nm
# Procedure: MDA-MB-231 cells were cultured in an incubator at 37° C. with 5% CO2 saturated humidity in the RPMI-1640 complete culture medium containing inactivated fetal calf serum with volume fraction of 10%, 100 U penicillin and streptomycin. Take MDA-MB-231 cells in logarithmic phase (primary culture bottle) and discard the culture solution. […] Prepare the suspended solution of cells and adjust the cell concentration with appropriate amount of complete culture medium to 3×10^4/mL. Fed the cells into a tissue culture plate 96, with cell suspended liquid of 180 μL in each case, and put the culture plate into a cell incubator (37° C., 5% CO2) for conventional culture. When cells grew to 50%-70%, add drug liquid of different concentration. […] For DMSO solvent control group, add 20 μL of PBS containing […] and for the blank group, add 20 μL of PBS. For each drug concentration, 6 complex cases were provided. Put back the culture plate into the cell incubator, after 48 h, add 20 μL MTT (5 mg/mL) solution and continue to incubate it in the incubator for 4 h, then remove the supernatant and dry it with tissue, add 200 μL DMSO into each case and vibrate it in the rocker without light for 15 min, to allow the crystal to fully dissolve. Determine the light absorption at 490 nm with a fully automatic ELISA instrument, and calculate the average suppression rate, suppression rate (%)=(control group A490−test group A490)/control group A490), the experiment was repeated three times. Relevant analysis and Student t tests in Microsoft Excel 2003 were used, and data are presented in X±SD.
# [2] = Solubility determination at 25° C.
# [3] = test system: myocardio ischemia mice; test: Heart rate in pituitrin acute myocardial ischemia model; format: in vivo, Sprague-Dawley mice (SD mice)
# Excerpt: (§1) Embodiment 6: […] Pituitrin injection was purchased from Nanjing Xinbai Pharmaceutical Co., Ltd., normal saline injection from Nanjing Xiaoying Pharmaceutical Co., Ltd., and DMSO, PG, and anhydrous ethanol were of chromatographic class. […] The data were presented with, and tested with t. P<0.05 indicates substantial difference, P<0.01 indicates very substantial difference; and P<0.001 indicates extremely substantial difference.
# [4] = test system: myocardio ischemia mice; test: T wave amplitude variation in pituitrin acute myocardial ischemia model; format: in vivo, Sprague-Dawley mice (SD mice)
# Excerpt: as §1
# [5] = test system: human chronmyelogenors leukemia cell strain K562; test: K562 cell toxicity test (MTT); format: cell-based; settings: 48 h; for OD value: MTT 490 nm
# Procedure: K-562 cells were cultured in an incubator at 37° C. with 5% CO2 saturated humidity in the RPMI-1640 complete culture medium containing inactivated calf serum with volume fraction of 10%, 100 U penicillin and streptomycin. […] For each drug concentration, 6 complex cases were provided. Put back the culture plate into the cell incubator, after 48 h, add 20 μL MTT (5 mg/mL) solution and continue to incubate it in the incubator for 4 h, then each case was added with triple liquid 100 μL, put it overnight to allow the crystal to fully dissolve. Vibrate it with oscillator for 20 min and determine the light absorption at 490 nm with a fully automatic ELISA instrument, and calculate the average suppression rate, suppression rate (%)=(control group A490−test group A490)/control group A490), the experiment was repeated three times. Relevant analysis and Student t tests in Microsoft Excel 2003 were used, and data are presented in X±SD.
structure (smiles),measurement,setting,value
"O=c1c(-c2ccc(O)cc2)coc2c([C@@H]3O[C@H](CO[C@]4(CO)O[C@H](CO)[C@@H](O)[C@@H]4O)[C@@H](O)[C@H](O)[C@H]3O)c(O)ccc12 [monofructosyl-β(2,6)-puerarin]",Average suppression rate,[1]; 0.5 μmol/L,3.68%
same,OD value,[1]; 0.5 μmol/L,0.676 ± 0.021
same,Average suppression rate,[1]; 1 μmol/L,5.02%
same,OD value,[1]; 1 μmol/L,0.666 ± 0.069
same,Average suppression rate,[1]; 5 μmol/L,3.47%
same,OD value,[1]; 5 μmol/L,0.677 ± 0.081
same,Average suppression rate,[1]; 10 μmol/L,4.20%
same,OD value,[1]; 10 μmol/L,0.672 ± 0.085
same,Average suppression rate,[1]; 50 μmol/L,20.17%
same,OD value,[1]; 50 μmol/L,0.560 ± 0.062
same,Average suppression rate,[1]; 100 μmol/L,28.70%
same,OD value,[1]; 100 μmol/L,0.500 ± 0.068
same,Average suppression rate,[1]; 150 μmol/L,44.04%
same,OD value,[1]; 150 μmol/L,0.392 ± 0.041
same,Average suppression rate,[1]; 200 μmol/L,59.42%
same,OD value,[1]; 200 μmol/L,0.285 ± 0.067
same,solubility,[2],26.0 mg/mL
same,solubility relative to puerarin,[2]; puerarin 5.2 g/L,5 times
same,Heart rate,"[3]; 12.5 mg/kg, 5 s",433 ± 63 time · min^−1
same,Heart rate,"[3]; 12.5 mg/kg, 10 s",416 ± 79 time · min^−1
same,Heart rate,"[3]; 12.5 mg/kg, 15 s",411 ± 75 time · min^−1
same,Heart rate,"[3]; 12.5 mg/kg, 30 s",389 ± 72 time · min^−1
same,Heart rate,"[3]; 12.5 mg/kg, 1 min",347 ± 71 time · min^−1
same,Heart rate,"[3]; 12.5 mg/kg, 2 min",339 ± 57 time · min^−1
same,Heart rate,"[3]; 12.5 mg/kg, 5 min",349 ± 50 time · min^−1
same,Heart rate,"[3]; 12.5 mg/kg, 10 min",395 ± 45 time · min^−1
same,Heart rate,"[3]; 12.5 mg/kg, Normal",403 ± 54 time · min^−1
same,Heart rate,"[3]; 25 mg/kg, 5 s",476 ± 65 time · min^−1
same,Heart rate,"[3]; 25 mg/kg, 10 s",442 ± 81 time · min^−1
same,Heart rate,"[3]; 25 mg/kg, 15 s",405 ± 88 time · min^−1
same,Heart rate,"[3]; 25 mg/kg, 30 s",428 ± 65 time · min^−1
same,Heart rate,"[3]; 25 mg/kg, 1 min",403 ± 54 time · min^−1
same,Heart rate,"[3]; 25 mg/kg, 2 min",386 ± 41 time · min^−1
same,Heart rate,"[3]; 25 mg/kg, 5 min",375 ± 37 time · min^−1
same,Heart rate,"[3]; 25 mg/kg, 10 min",420 ± 43 time · min^−1
same,Heart rate,"[3]; 25 mg/kg, Normal",474 ± 68 time · min^−1
same,Heart rate,"[3]; 50 mg/kg, 5 s",485 ± 95 time · min^−1
same,Heart rate,"[3]; 50 mg/kg, 10 s",423 ± 84 time · min^−1
same,Heart rate,"[3]; 50 mg/kg, 15 s",420 ± 76 time · min^−1
same,Heart rate,"[3]; 50 mg/kg, 30 s",378 ± 34 time · min^−1
same,Heart rate,"[3]; 50 mg/kg, 1 min",327 ± 89 time · min^−1
same,Heart rate,"[3]; 50 mg/kg, 2 min",339 ± 45 time · min^−1
same,Heart rate,"[3]; 50 mg/kg, 5 min",347 ± 55 time · min^−1
same,Heart rate,"[3]; 50 mg/kg, 10 min",435 ± 72 time · min^−1
same,Heart rate,"[3]; 50 mg/kg, Normal",483 ± 91 time · min^−1
same,effect on heart rate restoration in words,"[3]; 12.5, 25 and 50 mg/kg",has certain therapy effect on the heart disorder caused by myocardial ischemia; also recorded: has certain therapy effect on the heart disorder caused by myocardio ischemia
same,T wave amplitude variation,"[4]; 12.5 mg/kg, 15 s after Pit",0.082 ± 0.060 mv
same,T wave amplitude variation,"[4]; 12.5 mg/kg, 30 s after Pit",0.097 ± 0.084 mv
same,T wave amplitude variation,"[4]; 12.5 mg/kg, 1 min after Pit",0.051 ± 0.034 mv
same,T wave amplitude variation,"[4]; 12.5 mg/kg, 2 min after Pit",0.102 ± 0.071 mv
same,T wave amplitude variation,"[4]; 12.5 mg/kg, 5 min after Pit",0.069 ± 0.040 mv
same,T wave amplitude variation,"[4]; 12.5 mg/kg, 10 min after Pit",0.068 ± 0.038 mv
same,T wave amplitude variation,"[4]; 25 mg/kg, 15 s after Pit",0.053 ± 0.027 mv
same,T wave amplitude variation,"[4]; 25 mg/kg, 30 s after Pit",0.105 ± 0.076 mv
same,T wave amplitude variation,"[4]; 25 mg/kg, 1 min after Pit",0.116 ± 0.088 mv
same,T wave amplitude variation,"[4]; 25 mg/kg, 2 min after Pit",0.112 ± 0.087 mv
same,T wave amplitude variation,"[4]; 25 mg/kg, 5 min after Pit",0.067 ± 0.038 mv
same,T wave amplitude variation,"[4]; 25 mg/kg, 10 min after Pit",0.054 ± 0.038 mv
same,T wave amplitude variation,"[4]; 50 mg/kg, 15 s after Pit",0.092 ± 0.067 mv
same,T wave amplitude variation,"[4]; 50 mg/kg, 30 s after Pit",0.118 ± 0.087 mv
same,T wave amplitude variation,"[4]; 50 mg/kg, 1 min after Pit",0.109 ± 0.084 mv
same,T wave amplitude variation,"[4]; 50 mg/kg, 2 min after Pit",0.106 ± 0.091 mv
same,T wave amplitude variation,"[4]; 50 mg/kg, 5 min after Pit",0.080 ± 0.070 mv
same,T wave amplitude variation,"[4]; 50 mg/kg, 10 min after Pit",0.082 ± 0.058 mv
same,effect against myocardial ischemia (T wave) in words,"[4]; 12.5, 25 and 50 mg/kg, compared with puerarin",can better resist myocardial ischemia than puerarin; also recorded: has better effect to resist myocardio ischemia than puerarin
same,Average suppression rate,[5]; 1 μmol/L,7.85%
same,OD value,[5]; 1 μmol/L,0.950 ± 0.041
same,Average suppression rate,[5]; 5 μmol/L,7.53%
same,OD value,[5]; 5 μmol/L,0.950 ± 0.018
same,Average suppression rate,[5]; 10 μmol/L,6.76%
same,OD value,[5]; 10 μmol/L,0.958 ± 0.022
same,Average suppression rate,[5]; 20 μmol/L,6.16%
same,OD value,[5]; 20 μmol/L,0.963 ± 0.055
same,Average suppression rate,[5]; 50 μmol/L,11.14%
same,OD value,[5]; 50 μmol/L,0.913 ± 0.048
same,Average suppression rate,[5]; 100 μmol/L,16.41%
same,OD value,[5]; 100 μmol/L,0.858 ± 0.028
same,Average suppression rate,[5]; 150 μmol/L,29.84%
same,OD value,[5]; 150 μmol/L,0.720 ± 0.055
same,Average suppression rate,[5]; 200 μmol/L,46.41%
same,OD value,[5]; 200 μmol/L,0.550 ± 0.086
